Drawing on patent US20240216357A1 (SICHUAN HUIYU PHARMACEUTICAL CO., LTD., priority 2021, published 2024), this text covers IC50 for 10 compounds.

In one test the target is LSD1 (Homo sapiens (Human), UniProt O60341). Kind of test: LSD1 enzyme activity detection (HTRF). Format: biochemical. The conditions noted are these: HTRF, H3K4me1 substrate; read-out: Inhibition of enzymatic activity of LSD1 IC50.
Another test has as its system NCI-H1417 cells. Description: In vitro cell proliferation detection (CellTiter-Glo, 7 days). The note with it: Homo sapiens, 168 h; NCI-H1417 cells, 7 days, CellTiter-Glo; read-out: NCI-H1417 proliferation inhibition IC50. It counts as cell-based.

SMILES strings stand for the structures. Where a name gives a salt, the structure may show the parent alone.

On to `Cc1ccc(-c2c(-c3ccc(C#N)c(F)c3)nc(N3C4CCC3CC(N)C4)n3ccnc23)cc1O` (centres unmarked) [Example 156, 4-(5-(3-amino-8-azabicyclo[3.2.1]octane-8-yl)-8-(3-hydroxy-4-methylphenyl)imidazolo[1,2-c]pyrimidin-7-yl)-2-fluorobenzo nitrile hydrochloride], for which the IC50 on LSD1 amounted to 0.2 ± 0.06 nM; in the test on NCI-H1417 cells it was 0.447 nM.
The matching figures for `N#Cc1ccc(-c2nc(N3C4CCC3CC(N)C4)n3ccnc3c2-c2ccc(F)c(O)c2)cc1F` (centres unmarked) [Example 157, 4-(5-(3-amino-8-azabicyclo [3.2.1]octane-8-yl)-8-(4-fluoro-3-hydroxyphenyl)imidazolo [1,2-c]pyrimidin-7-yl)-2-fluorobenzonitrile hydrochloride]: 0.3 ± 0.3 nM and 2.05 nM.
Taken in the same sequence, the figures for `N#Cc1ccc(-c2nc(N3C4CCC3CC(N)C4)n3ccnc3c2-c2ccc(Cl)c(O)c2)cc1F` (centres unmarked) [Example 158, 4-(5-(3-amino-8-azabicyclo[3.2.1]octane-8-yl)-8-(4-chloro-3-hydroxyphenyl)imidazolo[1,2-c]pyrimidin-7-yl)-2-fluorobenzonitrile hydrochloride] were 0.2 ± 0.2 nM and 0.763 nM.
The matching figures for `Cc1ccc(-c2c(-c3ccc(C#N)c(F)c3)nc(N3CC4CCC(C3)C4N)n3ccnc23)cc1O` (centres unmarked) [Example 159, 4-(5-(8-amino-3-azabicyclo[3. 2.1]octane-3-yl)-8-(3-hydroxy-4-methylphenyl)imidazolo[1,2-c]pyrimidin-7-yl)-2-fluorobenzonitrile]: 2.8 ± 1 nM and 5.82 nM.
`Cc1ccc(-c2c(-c3ccc(C#N)c(F)c3)nc(N3CC4CC3CC4N)n3ccnc23)cc1O` (centres unmarked) [Example 160, 4-(5-(5-amino-2-azadicyclo[2. 2.1]heptan-2-yl)-8-(3-hydroxy-4-methylphenyl)imidazolo[1,2-c]pyrimidin-7-yl)-2-fluorobenzonitrile hydrochloride]: the figures for the IC50 on LSD1 and in the test on NCI-H1417 cells were 1.2 ± 0.2 nM and 0.29 nM, respectively.
The matching figures for `COc1ccc(-c2c(-c3ccc(C#N)c(F)c3)nc(N3CC4CCC(C3)C4N)n3ccnc23)cc1O` (centres unmarked) [Example 161, 4-(5-(8-amino-3-azabicyclo[3. 2.1]octane-3-yl)-8-(3-hydroxy-4-methoxyphenyl)imidazolo[1,2-c]pyrimidin-7-yl)-2-fluorobenzonitrile hydrochloride]: 3.9 ± 0.2 nM and 8.37 nM.
`COc1ccc(-c2c(-c3ccc(C#N)c(F)c3)nc(N3CC4CCC(C3)C4N)n3ccnc23)cc1F` (centres unmarked) [Example 162, 4-(5-(8-amino-3-azabicyclo [3.2.1]octyl-3-yl)-8-(3-fluoro-4-methoxyphenyl)imidazolo[1,2-c]pyrimidin-7-yl)-2-fluorobenzonitrile hydrochloride]: the IC50 on LSD1 is 59.9 nM; in the test with NCI-H1417 cells, 11.7 nM.
Taken in the same sequence, the figures for `COc1ccc(-c2c(-c3ccc(C#N)c(F)c3)nc(N3CC4CC(C3)C4N)n3ccnc23)cc1O` (centres unmarked) [Example 163, 4-(5-(6-amino-3-azabicyclo[3.1.1]heptan-3-yl)-8-(3-hydroxy-4-methoxyphenyl)imidazolo[1,2-c]pyrimidin-7-yl)-2-fluorobenzonitrile hydrochloride] were 5.6 ± 1.6 nM and 9.11 nM.
The matching figures for `Cc1ccc(-c2c(-c3ccc(C#N)c(F)c3)nc(N3CC4CC(C3)C4N)n3ccnc23)cc1O` (centres unmarked) [Example 165, 4-(5-(6-amino-3-azabicyclo [3.1.1]heptane-3-yl)-8-(3-hydroxy-4-methylphenyl)imidazolo[1,2-c]pyrimidin-7-yl)-2-fluorobenzonitrile]: 3.4 ± 1.5 nM and 4.68 nM.
Regarding `COc1ccc(-c2c(-c3ccc(C#N)c(F)c3)nc(N3CC4CCC3CC4N)n3ccnc23)cc1O` (centres unmarked) [Example 166, 4-(5-(5-amino-2-azabicyclo [2.2.2]octane-2-yl)-8-(3-hydroxy-4-methoxyphenyl)imidazolo[1,2-c]pyrimidin-7-yl)-2-fluorobenzonitrile hydrochloride], the IC50 was determined as 1 ± 0.5 nM on LSD1 and 2.39 nM with NCI-H1417 cells.
